# Where two headings read alike, the source gives them in different places.
# Columns and labels:
# [1] = Effect of co-solvents and non-ionic surfactants on posaconazole solubility in 100 mM Captisol; type: physicochemical; details: pH 4.5, aqueous with cosolvent or surfactant or cyclodextrin, thermodynamic from solid
# Protocol: In an effort to explore further improvements to the formulation, the effects of various co-solvents and non-ionic surfactants, on the solubility of posaconazole in a 100 mM Captisol® solution, were examined. The Captisol® solutions were adjusted with HCl to pH 4.5 and an appropriate amount of co-solvent was added. An excess amount of posaconazole was added to the pH-adjusted cyclodextrin/co-solvent solution and the solutions were allowed to equilibrate for a period of three days. The contents of the vials were then centrifuged and the supernatant was assayed for posaconazole.
# [2] = Posaconazole solubility in modified β and γ-cyclodextrins; type: physicochemical; details: for solubility: pH 4.5, aqueous with cosolvent or surfactant or cyclodextrin; for fold more posaconazole solubilized than Captisol: 100 mM cyclodextrin solutions
# Protocol: The solubilities of posaconazole in each of several modified β and γ-cyclodextrins were evaluated. Solubilization of posaconazole was tested with three gamma cyclodextrins; SBE (5.2)-gamma, SBE (5.2) Et (3.9)-gamma and SBE (5.2) Et (4.9)-gamma cyclodextrin, (CyDex, Inc.).
# On the other hand, some changes in β-cyclodextrin substitutions did lead to greater solubilization. Utilizing 100 mM cylodextrin solutions at pH 4.5, solubilization of posaconazole with SBE (4.6)-β, SBE (4.6)-Et (3.5)-β and SBE (4.6)-Et (8.5)-β cyclodextrins, versus Captisol®, was evaluated. The SBE (4.6)-Et (3.5)-β and SBE (4.6)-Et (8.5)-β cyclodextrins solubilized 2.6 and 6.6 fold more posaconazole (respectively) than did Captisol® (See FIG. 2). However, the extensive Captisol® safety information outweighed the potential benefits of greater solubilization and, for this reason, formulations with other sulfobutyl ether cyclodextrins were not further developed.
# [3] = Posaconazole solubility in acidified Captisol solutions; type: physicochemical; details: for solubility: acidified Captisol solution
# Protocol: In an effort to evaluate the range of posaconazole solubilities that could be achieved at feasible pH's, a series of solutions was prepared with a fixed Captisol® concentration. Utilizing an acidic solution of 20% Captisol® (w/v), the solubility of posaconazole was increased more than 1000 times and it was determined that a target concentration of 5 mg/mL could be achieved.
# Posaconazole solubility was also evaluated in acidified solutions with different Captisol® concentrations. […] Therefore, at some pH values, as the Captisol® concentration increases, the ratio of Captisol® to solubilized posaconazole will decrease. Based on this solubility effect, a formulation could be developed whereby for the same posaconazole daily dosage, the daily dose of Captisol® could be decreased.
# Hydrochloric acid was used as an acidifier in the posaconazole formulation. However, several additional acidifiers (i.e., citric, sulfuric, maleic, phosphoric, acetic, L-tartaric, D-tartaric, DL-tartaric, methanesulfonic, naphthalenesulfonic, p-toluenesulfonic, lactic, L-lactic, L-ascorbic and malic acid, as well as, glycine hydrochloride) were also evaluated in regard to posaconazole solubilization.
# [4] = neutral and basic aqueous solutions; cited from earlier work
# [5] = in water; cited from earlier work
molecule,measurement,setting,value
"CC[C@@H]([C@H](C)O)n1ncn(-c2ccc(N3CCN(c4ccc(OC[C@@H]5CO[C@@](Cn6cncn6)(c6ccc(F)cc6F)C5)cc4)CC3)cc2)c1=O [Posaconazole, posaconazole]",solubility at 3 days,"[1]; Captisol solution with co-solvent, 100 mM Captisol pH 4.5 + 10% PEG 400",1280 µg/mL
same,solubility at 3 days,"[1]; Captisol solution with co-solvent, 100 mM Captisol pH 4.5 + 10% PVP",640 µg/mL
same,solubility at 3 days,"[1]; Captisol solution with co-solvent, 100 mM Captisol pH 4.5 + 10% Propylene Glycol",410 µg/mL
same,solubility at 3 days,"[1]; Captisol solution with surfactant, 100 mM Captisol pH 4.5 + 0.1% Poloxamer F-68",1630 µg/mL
same,solubility at 3 days,"[1]; Captisol solution with surfactant, 100 mM Captisol pH 4.5 + 0.1% Tween 20",1710 µg/mL
same,solubility at 3 days,"[1]; Captisol solution with surfactant, 100 mM Captisol pH 4.5 + 0.1% Tween 80",1740 µg/mL
same,solubility at 3 days,"[1]; Captisol solution, Control (100 mM Captisol), pH 4.5, three days equilibration",1770 µg/mL
same,fold less solubility with gamma cyclodextrins than with Captisol,[2]; pH 4.5,approximately 8 fold
same,solubility,[2]; highest posaconazole solubility achieved,189 µg/mL
same,solubility,[2]; posaconazole solubility,1510 µg/mL
same,solubility,"[3]; pH 3, aqueous with cosolvent or surfactant or cyclodextrin, 20% Captisol, pH 3.0",8700 µg/mL
same,solubility,"[3]; pH 3.1, aqueous with cosolvent or surfactant or cyclodextrin, 20% Captisol, pH 3.1, calculated average of measured solubility at pH 3.0 and pH 3.2",7800 µg/mL
same,solubility,"[3]; pH 3.1, aqueous with cosolvent or surfactant or cyclodextrin, 40% Captisol, pH 3.1",22500 µg/mL
same,solubility,"[3]; pH 3.2, aqueous with cosolvent or surfactant or cyclodextrin, 20% Captisol, pH 3.2",6900 µg/mL
same,solubility,"[3]; pH 3.4, aqueous with cosolvent or surfactant or cyclodextrin, 20% Captisol, pH 3.4",5200 µg/mL
same,solubility,"[3]; pH 3.6, aqueous with cosolvent or surfactant or cyclodextrin, 20% Captisol, pH 3.6",4000 µg/mL
same,solubility,"[3]; pH 3.8, aqueous with cosolvent or surfactant or cyclodextrin, 20% Captisol, pH 3.8",3100 µg/mL
same,posaconazole solubilization with additional acidifiers versus hydrochloric acid,"[3]; citric, sulfuric, maleic, phosphoric, acetic, tartaric, sulfonic, lactic, ascorbic, malic acids, glycine hydrochloride, same pH",no improvement in solubility
same,solubility,[4],less than 1 μg/mL
"Sulfobutyl ether-β-cyclodextrins, (SBE-β-CD) sodium salt [Captisol®]",solubility,[5],>800 mg/mL in water
SBE (4.6)-Et (8.5)-β cyclodextrin,fold more posaconazole solubilized than Captisol,[2]; pH 4.5,6.6 fold
SBE (4.6)-Et (3.5)-β cyclodextrin,fold more posaconazole solubilized than Captisol,[2]; pH 4.5,2.6 fold

# From patent US9358297B2, “Posaconazole intravenous solution formulations stabilized by substituted β-cyclodextrin” (Merck Sharp & Dohme Corp., priority 2010, dated 2016)
